# How the values were obtained:
# ROCK = ROCK (Homo sapiens, UniProt Q13464); assay: ROCK inhibition (from Table 1 of Nature vol. 389, p. 991); type: biochemical; details: based on the Ki values of Table 1 of Nature vol. 389, p. 991
# From the text: According to Table 1 of Nature vol. […] 389, p. 991/30 October 1997 based on the Ki values.
# [1] = tested on: Rat MM-1 Ascites Hepatoma cells bearing V14 Rho A; assay: Peritoneal invasion of Rat MM-1 ascites hepatoma cells bearing V14 Rho A (carcinomatous peritonitis model); type: in vivo, male Donryu rats; details: after 11 days, 5 rats
# Procedure: MMI ascites hepatoma cells (2x10^7) stably expressing Val 14-RhoA were injected into the peritoneal cavities of male Donryu rats (body weight 100g) (to obtain a model of rat having MM-1 ascites Hepatoma cells bearing V14 Rho A). Fasudil was intravenously delivered at the indicated dose (0, 0.1 mg/Kg, 1 mg/Kg, and 10 mg/Kg) 3 times per day. After 11 days, the animals were sacrificed and (i) tumor nodules and tumor cell dissemination on peritoneum were assessed (This test was conducted by the method which is similar to one described in Nature Medicine Volume 5, Number 2, February 1999, p.223-225 and was conducted with 5 rats at each dose.). In addition, hyperemia of the surface in the peritoneum was also observed.
# [2] = molecular target: human-recombinant protein kinase N (Homo sapiens, UniProt Q16512); assay: Measurement of inhibition activity of protein kinase N (PKN); type: biochemical
# Procedure: The PKN reaction was carried out in 50 µl reaction buffer (20mM Tris HCI pH 7.5, 8mM MgCl2) containing (i) 40µM PKCα peptide ([…]) as a substrate of PKN, (ii) 1 µM GTPγS form GST-RhoA (prepared by the method of Method in ENZYMOLOGY Vol. 256 Small GTPases and Their Regulators Part B Rho Family P.3-10), (iii) 50µM, 20µM, 10µM and 5µM (as the final concentration of the reaction mixture) of ATP and 0.5µl of [γ-^32P] ATP (1.11 TBg/mmol, 74MBg/ml; supplied by NEN™ Life Science Product, Inc.), and (iv) a purified human-recombinant protein kinase N (prepared by using a Baculovirus expression system), in the presence of or in the absence of 1 µM of hexahydro-1-(5-isoquinolinesulfonyl)-1H-1,4-diazepine hydrochloride (Fasudil Hydrochloride). 30µl of the reaction mixture was spotted onto Whatman paper P81 (supplied by Whatman International Ltd.) after the incubation for 10 minutes at 30°C. After the spotting, the spotted Whatman paper was washed with 75mM phosphoric acid 5 times. Then incorporation of ^32P into the PKCα peptide on the washed paper was assessed by scintillation counting. Based on the assessment by scintillation counting, Km value was measured by Lineweaver-Burk plot (method), then K, value was calculated.
# [3] = 0.1 mg/Kg intravenously 3 times per day
# [4] = 1 mg/Kg intravenously 3 times per day
# [5] = 10 mg/Kg intravenously 3 times per day
# human-recombinant protein kinase N, sequence (Q16512 whole entry): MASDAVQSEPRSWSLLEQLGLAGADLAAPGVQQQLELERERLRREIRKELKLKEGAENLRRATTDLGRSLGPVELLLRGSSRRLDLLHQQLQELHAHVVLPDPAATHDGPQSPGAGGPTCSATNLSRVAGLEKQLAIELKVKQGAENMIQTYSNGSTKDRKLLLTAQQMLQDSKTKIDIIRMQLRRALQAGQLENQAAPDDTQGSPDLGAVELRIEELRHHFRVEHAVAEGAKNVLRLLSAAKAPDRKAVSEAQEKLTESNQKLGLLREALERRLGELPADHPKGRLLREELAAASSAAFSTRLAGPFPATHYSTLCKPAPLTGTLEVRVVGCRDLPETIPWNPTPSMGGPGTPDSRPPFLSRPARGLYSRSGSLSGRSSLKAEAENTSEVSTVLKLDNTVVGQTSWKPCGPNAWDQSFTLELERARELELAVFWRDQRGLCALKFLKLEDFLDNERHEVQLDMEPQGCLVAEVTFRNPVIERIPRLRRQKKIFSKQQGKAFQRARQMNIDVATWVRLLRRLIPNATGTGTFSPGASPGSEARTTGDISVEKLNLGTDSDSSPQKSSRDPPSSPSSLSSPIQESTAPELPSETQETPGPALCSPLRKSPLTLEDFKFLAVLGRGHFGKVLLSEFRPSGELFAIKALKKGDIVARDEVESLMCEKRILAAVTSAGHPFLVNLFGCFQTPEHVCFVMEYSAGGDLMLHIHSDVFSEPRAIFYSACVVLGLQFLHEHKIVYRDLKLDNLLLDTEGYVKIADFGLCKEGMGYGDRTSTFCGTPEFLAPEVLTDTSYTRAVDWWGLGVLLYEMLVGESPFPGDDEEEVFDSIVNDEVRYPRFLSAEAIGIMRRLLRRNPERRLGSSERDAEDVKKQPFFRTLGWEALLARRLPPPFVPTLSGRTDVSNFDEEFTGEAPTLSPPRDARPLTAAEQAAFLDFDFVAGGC
# human-recombinant protein kinase N, sequence (P61586 whole entry partner): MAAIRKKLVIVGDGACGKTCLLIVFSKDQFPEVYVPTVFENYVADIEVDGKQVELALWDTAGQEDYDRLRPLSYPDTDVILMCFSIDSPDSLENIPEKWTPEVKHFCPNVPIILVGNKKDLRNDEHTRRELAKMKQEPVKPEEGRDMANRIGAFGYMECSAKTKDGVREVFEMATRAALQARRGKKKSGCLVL
# ROCK, sequence (Q13464 whole entry): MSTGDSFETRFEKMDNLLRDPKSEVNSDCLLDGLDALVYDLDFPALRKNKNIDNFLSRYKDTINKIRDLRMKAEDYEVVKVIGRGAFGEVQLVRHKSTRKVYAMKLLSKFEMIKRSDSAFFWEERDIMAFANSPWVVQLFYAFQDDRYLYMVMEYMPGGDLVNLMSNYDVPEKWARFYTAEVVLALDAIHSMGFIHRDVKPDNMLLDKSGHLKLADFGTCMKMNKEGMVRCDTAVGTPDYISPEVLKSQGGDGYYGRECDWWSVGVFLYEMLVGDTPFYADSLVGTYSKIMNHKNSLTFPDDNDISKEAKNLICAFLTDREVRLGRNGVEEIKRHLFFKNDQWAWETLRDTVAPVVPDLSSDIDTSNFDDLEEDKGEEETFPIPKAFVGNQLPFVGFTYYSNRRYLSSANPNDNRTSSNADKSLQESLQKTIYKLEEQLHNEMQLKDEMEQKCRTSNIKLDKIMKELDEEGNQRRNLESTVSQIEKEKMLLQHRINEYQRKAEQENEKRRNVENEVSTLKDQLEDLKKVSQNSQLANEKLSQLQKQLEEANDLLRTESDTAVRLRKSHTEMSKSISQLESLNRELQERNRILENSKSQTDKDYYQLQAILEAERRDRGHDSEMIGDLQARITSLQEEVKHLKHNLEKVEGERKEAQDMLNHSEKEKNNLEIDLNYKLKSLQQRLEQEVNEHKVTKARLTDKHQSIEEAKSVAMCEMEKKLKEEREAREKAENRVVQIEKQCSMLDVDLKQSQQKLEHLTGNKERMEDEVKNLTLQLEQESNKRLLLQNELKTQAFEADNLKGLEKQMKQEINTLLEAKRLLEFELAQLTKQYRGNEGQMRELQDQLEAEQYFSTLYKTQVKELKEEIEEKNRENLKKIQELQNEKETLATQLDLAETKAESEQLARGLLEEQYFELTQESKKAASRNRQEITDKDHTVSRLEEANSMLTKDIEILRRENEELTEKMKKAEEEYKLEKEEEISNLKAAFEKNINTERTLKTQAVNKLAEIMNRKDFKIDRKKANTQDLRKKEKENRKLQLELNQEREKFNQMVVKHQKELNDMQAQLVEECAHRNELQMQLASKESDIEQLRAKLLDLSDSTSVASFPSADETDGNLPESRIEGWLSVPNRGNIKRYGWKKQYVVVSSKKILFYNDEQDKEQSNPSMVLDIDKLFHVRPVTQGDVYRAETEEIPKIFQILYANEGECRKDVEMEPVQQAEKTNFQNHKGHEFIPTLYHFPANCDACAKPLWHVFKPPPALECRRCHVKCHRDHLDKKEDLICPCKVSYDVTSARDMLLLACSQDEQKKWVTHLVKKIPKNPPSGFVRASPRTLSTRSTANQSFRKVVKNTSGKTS
structure (smiles),measurement,setting,value
"Cl.O=S(=O)(c1cccc2cnccc12)N1CCCNCC1 [Fasudil Hydrochloride, hexahydro-1-(5-isoquinolinesulfonyl)-1H-1,4-diazepine hydrochloride]",ROCK inhibitory activity relative to the inhibitory activity of protein kinase C,ROCK,28 times
same,Hyperemia of the surface in the peritoneum,[1]; [3],+ (25-50% of surface in the peritoneum shows hyperemia)
same,Total number of tumor nodules on peritoneum,[1]; [3],22
same,Hyperemia of the surface in the peritoneum,[1]; [4],± (less than 25% of surface in the peritoneum shows hyperemia)
same,Total number of tumor nodules on peritoneum,[1]; [4],11
same,Hyperemia of the surface in the peritoneum,[1]; [5],± (less than 25% of surface in the peritoneum shows hyperemia)
same,Total number of tumor nodules on peritoneum,[1]; [5],0
same,Ki,"[2]; 1 µM Fasudil Hydrochloride, ATP 50, 20, 10 and 5 µM, Lineweaver-Burk plot, 10 minutes at 30°C",0.922 µM
same,PKN inhibitory activity relative to the inhibitory activity of protein kinase C,"[2]; based on the Ki values, protein kinase C Ki from Table 1 of Nature vol. 389, p. 991",ten times higher

# — patent publication EP1064944A1, “Protein kinase N inhibitor comprising Fasudil” (priority 1999, dated 2001)
